# T1: Farnesyltransferase (Saccharomyces cerevisiae S288c, UniProt P22007+P29703)
# T1 sequence (P29703 whole entry): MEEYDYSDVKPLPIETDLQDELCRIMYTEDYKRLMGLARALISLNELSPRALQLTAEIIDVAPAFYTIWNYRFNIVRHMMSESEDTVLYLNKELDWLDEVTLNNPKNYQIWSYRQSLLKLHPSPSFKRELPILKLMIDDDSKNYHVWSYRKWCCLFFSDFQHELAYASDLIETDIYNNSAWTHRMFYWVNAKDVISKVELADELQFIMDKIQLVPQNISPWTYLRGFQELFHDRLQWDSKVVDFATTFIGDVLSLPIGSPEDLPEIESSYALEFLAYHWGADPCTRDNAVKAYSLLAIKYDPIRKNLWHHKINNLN
# T1 sequence (P22007 whole entry): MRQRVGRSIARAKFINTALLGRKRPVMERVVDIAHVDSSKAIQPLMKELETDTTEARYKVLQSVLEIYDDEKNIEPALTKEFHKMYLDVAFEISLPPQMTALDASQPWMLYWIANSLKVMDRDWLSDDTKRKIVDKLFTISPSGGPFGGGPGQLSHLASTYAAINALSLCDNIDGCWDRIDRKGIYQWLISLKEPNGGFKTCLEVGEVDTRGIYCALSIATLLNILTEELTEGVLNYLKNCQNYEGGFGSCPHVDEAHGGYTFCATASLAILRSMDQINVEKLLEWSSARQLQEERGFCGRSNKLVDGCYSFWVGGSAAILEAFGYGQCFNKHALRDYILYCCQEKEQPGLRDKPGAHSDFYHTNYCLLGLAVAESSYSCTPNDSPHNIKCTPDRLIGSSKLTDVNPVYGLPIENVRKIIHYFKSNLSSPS
# Tests used:
# Farnesyltransferase = target: T1, Farnesyltransferase; assay: (§1) Dissociation constant against yeast farnesyltransferase; assay type: protein-complex assay
# [1] = substrate: CC(C)=CCC/C(C)=C/CC/C(C)=C/COP(=O)(O)OP(=O)(O)O; assay: as §1; assay type: protein-complex assay; conditions: Saccharomyces cerevisiae
Ki (Farnesyltransferase),Molecule,Km [1]
8.8 µM,CC(C)=C/C=C/C(C)=C/C=C/C(C)=C/COP(=O)(O)OP(=O)(O)O,–
–,"Farnesyltransferase (Saccharomyces cerevisiae S288c), P29703+P22007 (protein) chain 1: MEEYDYSDVKPLPIETDLQDELCRIMYTEDYKRLMGLARALISLNELSPRALQLTAEIIDVAPAFYTIWNYRFNIVRHMMSESEDTVLYLNKELDWLDEVTLNNPKNYQIWSYRQSLLKLHPSPSFKRELPILKLMIDDDSKNYHVWSYRKWCCLFFSDFQHELAYASDLIETDIYNNSAWTHRMFYWVNAKDVISKVELADELQFIMDKIQLVPQNISPWTYLRGFQELFHDRLQWDSKVVDFATTFIGDVLSLPIGSPEDLPEIESSYALEFLAYHWGADPCTRDNAVKAYSLLAIKYDPIRKNLWHHKINNLN chain 2: MRQRVGRSIARAKFINTALLGRKRPVMERVVDIAHVDSSKAIQPLMKELETDTTEARYKVLQSVLEIYDDEKNIEPALTKEFHKMYLDVAFEISLPPQMTALDASQPWMLYWIANSLKVMDRDWLSDDTKRKIVDKLFTISPSGGPFGGGPGQLSHLASTYAAINALSLCDNIDGCWDRIDRKGIYQWLISLKEPNGGFKTCLEVGEVDTRGIYCALSIATLLNILTEELTEGVLNYLKNCQNYEGGFGSCPHVDEAHGGYTFCATASLAILRSMDQINVEKLLEWSSARQLQEERGFCGRSNKLVDGCYSFWVGGSAAILEAFGYGQCFNKHALRDYILYCCQEKEQPGLRDKPGAHSDFYHTNYCLLGLAVAESSYSCTPNDSPHNIKCTPDRLIGSSKLTDVNPVYGLPIENVRKIIHYFKSNLSSPS",27 µM
